The values that follow are results of earlier work, collected in patent publication US9399681B2, “Amatoxin-conjugates with improved linkers” (Heldelberg Pharma GmbH, priority 2010, dated 2016).

The target in the data set is DNA-dependent RNA polymerase II of mammalian cells (Homo sapiens, UniProt P24928). The settings on record: background statement, non-covalent complex; read-out: KD of the complex between amanitin and RNA-polymerase II.

As usually defined, the Kd is the concentration at which binding is half-saturated. Take amanitin: the Kd is 3 nM.
